Like-named read-outs stand apart in the source and are kept apart here.
Tests used:
HIV-1 (IIIB) = test: Antiviral assay in MT-4 cells (HIV MT-4 antiviral assay); format: cell-based; conditions: Human immunodeficiency virus 1, IIIB, MT4, 120 h, HIV-1 (IIIB) in MT-4 cells, 5 days incubation; read-out: EC50
In short: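 Read-out is CellTiter-Glo chemiluminescence after 5-day culture at 37° C, giving protection of MT-4 cells from HIV-1 IIIB cytopathicity. Compounds tested in 1:3 dilution series in complete RPMI; controls were no drug, mock infection and 5 μM AZT.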

pLai RLuc reporter virus = test: microbe, parasite or virus in culture; format: cell-based, HIV; conditions: Human immunodeficiency virus 1, 72 h
In short: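 Read-out is Renilla luciferase after 72 h at 37 °C in MT-4 cells infected 2 h beforehand with pLai RLuc reporter virus; compounds diluted 1:3.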

[1] = Cytotoxicity assay in MT-4 cells; format: cell-based, human; conditions: human, uninfected MT-4 cells, 5 days incubation; read-out: CC50
In short: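 For cytotoxicity, uninfected MT-4 cells were incubated with compounds 5 days at 37 °C, with 10 μM puromycin marking base cytotoxicity. Parallel plates used HIV-1 IIIB-infected (1:250 stock dilution) or mock cells with 5 μM AZT and no-drug controls. Read-out: CellTiter-Glo chemiluminescence.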

[2] = read-out: Antiviral Serum Shift RLuc 50% HS, HS/CCM (RPMI media, 10% FBS, 50% HS, 1% P/S), 72-h incubation
[3] = read-out: Antiviral Serum Shift RLuc CCM, CCM (RPMI media, 10% FBS, 1% P/S), 72-h incubation

Row | Structure (SMILES) | EC50 (HIV-1 (IIIB)) | EC50 (pLai RLuc reporter virus; [2]) | EC50 (pLai RLuc reporter virus; [3]) | CC50 at 5 days [1]
1 | C[C@@H]1CC[C@H]2CN(C(=O)c3c(O)c(=O)c(C(=O)NCc4c(F)cc(F)cc4F)cn32)[C@H]1C [Example 108-1, (3S,4R,7S)-12-hydroxy-3,4-dimethyl-1,11-dioxo-N-(2,4,6-trifluorobenzyl)-1,4,5,6,7,11-hexahydro-3H-2,7-methanopyrido[1,2-a][1,4]diazonine-10-carboxamide] | 0.997 nM | 1.31 nM | 0.2 nM | 16100 nM
2 | C[C@H]1CCC[C@H]2CN1C(=O)c1c(O)c(=O)c(C(=O)NCc3c(F)cc(F)cc3F)cn12 [Example 98, (3S, 7S)-12-hydroxy-3-methyl-1,11-dioxo-N-(2,4,6-trifluorobenzyl)-1,4,5,6,7,11-hexahydro-3H-2,7-methanopyrido[1,2-a][1,4]diazonine-10-carboxamide] | 1.27 nM | 19.2 nM | 0.284 nM | 14300 nM
3 | C[C@@]1(F)CCCN2C[C@@H]1n1cc(C(=O)NCc3c(F)cc(F)cc3F)c(=O)c(O)c1C2=O [Example 61-2, (6R, 7S)-6-fluoro-12-hydroxy-6-methyl-1,11-dioxo-N-(2,4,6-trifluorobenzyl)-1,4,5,6,7,11-hexahydro-3H-2,7-methanopyrido[1,2-a][1,4]diazonine-10-carboxamide] | 2.51 nM | 13.8 nM | 0.142 nM | 16900 nM
4 | C[C@@H]1[C@H]2CCCCN1C(=O)c1c(O)c(=O)c(C(=O)NCc3ccc(F)cc3F)cn12 [Example 7, (7R,13R)—N-(2,4-difluorobenzyl)-12-hydroxy-13-methyl-1,11-dioxo-1,4,5,6,7,11-hexahydro-3H-2,7-methanopyrido[1,2-a][1,4]diazonine-10-carboxamide] | 1.4 nM | 1.47 nM | 0.28 nM | 8810 nM
5 | O=C(NCc1ccc(F)cc1F)c1cn2c(c(O)c1=O)C(=O)N1Cc3cc(F)ccc3C[C@H]2C1 [Example 146, (6S)—N-(2,4-difluorobenzyl)-10-fluoro-1-hydroxy-2,14-dioxo-2,7,12,14-tetrahydro-6H-6,13-methanobenzo[f]pyrido[1,2-a][1,4]diazonine-3-carboxamide] | 1.76 nM | 1.12 nM | 0.227 nM | > 50000 nM
6 | C[C@@H]1C=C[C@H](C)N2C[C@H]1n1cc(C(=O)NCc3c(F)cc(F)cc3F)c(=O)c(O)c1C2=O [Example 176, (3S,6R,7S)-12-hydroxy-3,6-dimethyl-1,11-dioxo-N-(2,4,6-trifluorobenzyl)-1,6,7,11-tetrahydro-3H-2,7-methanopyrido[1,2-a][1,4]diazonine-10-carboxamide] | 0.829 nM | 16.7 nM | 0.263 nM | 7770 nM
7 | C[C@]12CCCCN(C1)C(=O)c1c(O)c(=O)c(C(=O)NCc3c(F)cc(F)cc3F)cn12 [Example 59-1, (7S)-12-hydroxy-7-methyl-1,11-dioxo-N-(2,4,6-trifluorobenzyl)-1,4,5,6,7,11-hexahydro-3H-2,7-methanopyrido[1,2-a][1,4]diazonine-10-carboxamide] | 1.53 nM | 26.4 nM | 0.361 nM | 15000 nM
8 | O=C(NCc1ccc(F)cc1F)c1cn2c(c(O)c1=O)C(=O)N1CC3CC3CC2C1 (single isomer, unassigned) [Example 42-1, N-(2,4-difluorobenzyl)-5-hydroxy-4,6-dioxo-1,1a,2,4,6,10,11,11a-octahydro-3,10-methanocyclopropa[f]pyrido[1,2-a][1,4]diazonine-7-carboxamide] | 1.6 nM | 1.34 nM | 0.28 nM | 7490 nM
9 | O=C(NCc1c(F)cc(F)cc1F)c1cn2c(c(O)c1=O)C(=O)N1CCC[C@H](F)[C@H]2C1 [Example 15-2, (6S, 7R)-6-fluoro-12-hydroxy-1,11-dioxo-N-(2,4,6-trifluorobenzyl)-1,4,5,6,7,11-hexahydro-3H-2,7-methanopyrido[1,2-a][1,4]diazonine-10-carboxamide] | 1.4 nM | 4.32 nM | 0.29 nM | 15300 nM
10 | C[C@@H]1C=C[C@H](C)N2C[C@H]1n1cc(C(=O)NCc3ccc(F)cc3F)c(=O)c(O)c1C2=O [Example 177, (3S,6R,7S)—N-(2,4-difluorobenzyl)-12-hydroxy-3,6-dimethyl-1,11-dioxo-1,6,7,11-tetrahydro-3H-2,7-methanopyrido[1,2-a][1,4]diazonine-10-carboxamide] | 0.915 nM | 11.1 nM | 0.294 nM | 8540 nM
11 | C[C@@]1(F)CCCN2C[C@@H]1n1cc(C(=O)NCc3ccc(F)cc3F)c(=O)c(O)c1C2=O [Example 60-3, (6R, 7S)—N-(2,4-difluorobenzyl)-6-fluoro-12-hydroxy-6-methyl-1,11-dioxo-1,4,5,6,7,11-hexahydro-3H-2,7-methanopyrido[1,2-a][1,4]diazonine-10-carboxamide] | 2.23 nM | 14.8 nM | 0.376 nM | 14800 nM
12 | O=C(NCc1ccc(F)cc1F)c1cn2c(c(O)c1=O)C(=O)N1Cc3ccccc3C[C@H]2C1 [Example 71, (6S)—N-(2,4-difluorobenzyl)-1-hydroxy-2,14-dioxo-2,7,12,14-tetrahydro-6H-6,13-methanobenzo[f]pyrido[1,2-a][1,4]diazonine-3-carboxamide] | 2.14 nM | 1.66 nM | 0.302 nM | 15000 nM
13 | C[C@@]12CN(CCc3cc(F)c(F)cc31)C(=O)c1c(O)c(=O)c(C(=O)NCc3c(F)cc(F)cc3F)cn12 (single isomer, unassigned) [Example 120-1] | 3.54 nM | 4.96 nM | 0.371 nM | 8990 nM
14 | CC[C@@H]1CCC[C@H]2CN1C(=O)c1c(O)c(=O)c(C(=O)NCc3c(F)cc(F)cc3F)cn12 [Example 130-1, (3R,7S)-3-ethyl-12-hydroxy-1,11-dioxo-N-(2,4,6-trifluorobenzyl)-1,4,5,6,7,11-hexahydro-3H-2,7-methanopyrido[1,2-a][1,4]diazonine-10-carboxamide] | 1.53 nM | 4.17 nM | 0.213 nM | 12200 nM
15 | O=C(NCc1ccc(F)cc1F)c1cn2c(c(O)c1=O)C(=O)N1CCCC[C@]2(CF)C1 [Example 162-2, (7R)—N-(2,4-difluorobenzyl)-7-(fluoromethyl)-12-hydroxy-1,11-dioxo-1,4,5,6,7,11-hexahydro-3H-2,7-methanopyrido[1,2-a][1,4]diazonine-10-carboxamide] | 2.58 nM | 15.3 nM | 0.118 nM | 14400 nM
16 | O=C(NCc1c(F)cc(F)cc1F)c1cn2c(c(O)c1=O)C(=O)N1CCC[C@H](Cl)[C@H]2C1 (single isomer, unassigned) [Example 72-1] | 1.57 nM | 5.36 nM | 0.281 nM | 9990 nM
17 | O=C(NCc1ccc(F)c(Cl)c1F)c1cn2c(c(O)c1=O)C(=O)N1CCCC(F)(F)[C@@H]2C1 (single isomer, unassigned) [Example 117-2] | 3.53 nM | 1270 nM | 0.603 nM | 15700 nM

— patent US12227520B2 (priority 2019, dated 2025)
